Reference: the supplement of paper PMC10307832

What was measured:
Assay in all cases: relative viability (nuclei count vs DMSO), 5 days (fraction); higher = more cells survive
NCI-H1650 = system: NCI-H1650
Summary of the method: (§1)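 Five library-drug doses in √10 steps were combined with a fixed anchor-drug dose, or a single drug was given alone, by pin tool to lung cancer cell lines in 1536-well plates the day after seeding. Nuclei were stained and counted after 5 days. Relative viability is the nuclei count in treated wells over that in vehicle wells, taken as the median of duplicate plates.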

SW 900 = system: SW 900
Summary of the method: as §1

A-427 = system: A-427
Summary of the method: as §1

LCLC-97TM1 = system: LCLC-97TM1
Summary of the method: as §1

NCI-H2347 = system: NCI-H2347
Summary of the method: as §1

NCI-H838 = system: NCI-H838
Summary of the method: as §1

H3255 = system: H3255
Summary of the method: as §1

NCI-H1793 = system: NCI-H1793
Summary of the method: as §1

LU99A = system: LU99A
Summary of the method: as §1

NCI-H1563 = system: NCI-H1563
Summary of the method: as §1

NCI-H1944 = system: NCI-H1944
Summary of the method: as §1

NCI-H460 = system: NCI-H460
Summary of the method: as §1

201T = system: 201T
Summary of the method: as §1

PC-3 [JPC-3] = system: PC-3 [JPC-3]
Summary of the method: as §1

LK-2 = system: LK-2
Summary of the method: as §1

NCI-H23 = system: NCI-H23
Summary of the method: as §1

NCI-H650 = system: NCI-H650
Summary of the method: as §1

PC-14 = system: PC-14
Summary of the method: as §1

SW 1573 = system: SW 1573
Summary of the method: as §1

NCI-H727 = system: NCI-H727
Summary of the method: as §1

COR-L23 = system: COR-L23
Summary of the method: as §1

LCLC-103H = system: LCLC-103H
Summary of the method: as §1

SMILES: NC(=O)Nc1cc(-c2cccc(F)c2)sc1C(=O)N[C@H]1CCCNC1 [AZD7762] + COc1cc2c(Oc3ccc(NC(=O)C4(C(=O)Nc5ccc(F)cc5)CC4)cc3F)ccnc2cc1OCCCN1CCOCC1 [Foretinib] (partner 0.25 µM)
- relative viability (NCI-H1650; first compound 0.01 µM): 1.25
- relative viability (NCI-H1650; first compound 0.03162 µM): 0.931
- relative viability (NCI-H1650; first compound 0.1 µM): 1.14
- relative viability (NCI-H1650; first compound 0.3162 µM): 0.804
- relative viability (NCI-H1650; first compound 1 µM): 0.24
- relative viability (SW 900; first compound 0.01 µM): 0.777
- relative viability (SW 900; first compound 0.03162 µM): 0.84
- relative viability (SW 900; first compound 0.1 µM): 1.29
- relative viability (SW 900; first compound 0.3162 µM): 0.825
- relative viability (SW 900; first compound 1 µM): 0.533
- relative viability (A-427; first compound 0.01 µM): 1.08
- relative viability (A-427; first compound 0.03162 µM): 0.976
- relative viability (A-427; first compound 0.1 µM): 1.03
- relative viability (A-427; first compound 0.3162 µM): 0.781
- relative viability (A-427; first compound 1 µM): 0.755
- relative viability (LCLC-97TM1; first compound 0.01 µM): 0.891
- relative viability (LCLC-97TM1; first compound 0.03162 µM): 0.88
- relative viability (LCLC-97TM1; first compound 0.1 µM): 1.02
- relative viability (LCLC-97TM1; first compound 0.3162 µM): 0.95
- relative viability (LCLC-97TM1; first compound 1 µM): 0.948
- relative viability (NCI-H2347; first compound 0.01 µM): 1.55
- relative viability (NCI-H2347; first compound 0.03162 µM): 0.791
- relative viability (NCI-H2347; first compound 0.1 µM): 0.767
- relative viability (NCI-H2347; first compound 0.3162 µM): 0.616
- relative viability (NCI-H2347; first compound 1 µM): 0.51
- relative viability (NCI-H838; first compound 0.01 µM): 1.1
- relative viability (NCI-H838; first compound 0.03162 µM): 1.07
- relative viability (NCI-H838; first compound 0.1 µM): 1.04
- relative viability (NCI-H838; first compound 0.3162 µM): 0.992
- relative viability (NCI-H838; first compound 1 µM): 0.553
- relative viability (H3255; first compound 0.01 µM): 1.12
- relative viability (H3255; first compound 0.03162 µM): 0.875
- relative viability (H3255; first compound 0.1 µM): 0.972
- relative viability (H3255; first compound 0.3162 µM): 0.89
- relative viability (H3255; first compound 1 µM): 0.859
- relative viability (NCI-H1793; first compound 0.01 µM): 0.732
- relative viability (NCI-H1793; first compound 0.03162 µM): 0.682
- relative viability (NCI-H1793; first compound 0.1 µM): 0.595
- relative viability (NCI-H1793; first compound 0.3162 µM): 0.8
- relative viability (NCI-H1793; first compound 1 µM): 0.608
- relative viability (LU99A; first compound 0.01 µM): 0.798
- relative viability (LU99A; first compound 0.03162 µM): 0.828
- relative viability (LU99A; first compound 0.1 µM): 0.791
- relative viability (LU99A; first compound 0.3162 µM): 0.822
- relative viability (LU99A; first compound 1 µM): 0.537
- relative viability (NCI-H1563; first compound 0.01 µM): 1.04
- relative viability (NCI-H1563; first compound 0.03162 µM): 0.967
- relative viability (NCI-H1563; first compound 0.1 µM): 0.974
- relative viability (NCI-H1563; first compound 0.3162 µM): 0.94
- relative viability (NCI-H1563; first compound 1 µM): 0.83
- relative viability (NCI-H1944; first compound 0.01 µM): 0.907
- relative viability (NCI-H1944; first compound 0.03162 µM): 0.975
- relative viability (NCI-H1944; first compound 0.1 µM): 1.06
- relative viability (NCI-H1944; first compound 0.3162 µM): 1.08
- relative viability (NCI-H1944; first compound 1 µM): 0.591
- relative viability (NCI-H460; first compound 0.01 µM): 1.12
- relative viability (NCI-H460; first compound 0.03162 µM): 1
- relative viability (NCI-H460; first compound 0.1 µM): 1.01
- relative viability (NCI-H460; first compound 0.3162 µM): 0.964
- relative viability (NCI-H460; first compound 1 µM): 0.176
- relative viability (201T; first compound 0.01 µM): 1.17
- relative viability (201T; first compound 0.03162 µM): 1.26
- relative viability (201T; first compound 0.1 µM): 1.11
- relative viability (201T; first compound 0.3162 µM): 0.961
- relative viability (201T; first compound 1 µM): 0.279
- relative viability (PC-3 [JPC-3]; first compound 0.01 µM): 1.06
- relative viability (PC-3 [JPC-3]; first compound 0.03162 µM): 1.06
- relative viability (PC-3 [JPC-3]; first compound 0.1 µM): 1.04
- relative viability (PC-3 [JPC-3]; first compound 0.3162 µM): 1.13
- relative viability (PC-3 [JPC-3]; first compound 1 µM): 1.02
- relative viability (LK-2; first compound 0.01 µM): 1.38
- relative viability (LK-2; first compound 0.03162 µM): 1.34
- relative viability (LK-2; first compound 0.1 µM): 1.11
- relative viability (LK-2; first compound 0.3162 µM): 0.864
- relative viability (LK-2; first compound 1 µM): 0.722
- relative viability (NCI-H23; first compound 0.01 µM): 0.886
- relative viability (NCI-H23; first compound 0.03162 µM): 1.09
- relative viability (NCI-H23; first compound 0.1 µM): 0.976
- relative viability (NCI-H23; first compound 0.3162 µM): 1.11
- relative viability (NCI-H23; first compound 1 µM): 0.366
- relative viability (NCI-H650; first compound 0.01 µM): 1.13
- relative viability (NCI-H650; first compound 0.03162 µM): 0.991
- relative viability (NCI-H650; first compound 0.1 µM): 1.03
- relative viability (NCI-H650; first compound 0.3162 µM): 1.03
- relative viability (NCI-H650; first compound 1 µM): 1.05
- relative viability (PC-14; first compound 0.01 µM): 1.04
- relative viability (PC-14; first compound 0.03162 µM): 0.927
- relative viability (PC-14; first compound 0.1 µM): 0.973
- relative viability (PC-14; first compound 0.3162 µM): 0.885
- relative viability (PC-14; first compound 1 µM): 0.361
- relative viability (SW 1573; first compound 0.01 µM): 0.845
- relative viability (SW 1573; first compound 0.03162 µM): 0.866
- relative viability (SW 1573; first compound 0.1 µM): 0.99
- relative viability (SW 1573; first compound 0.3162 µM): 1.12
- relative viability (SW 1573; first compound 1 µM): 1.02
- relative viability (NCI-H727; first compound 0.01 µM): 0.989
- relative viability (NCI-H727; first compound 0.03162 µM): 0.804
- relative viability (NCI-H727; first compound 0.1 µM): 0.728
- relative viability (NCI-H727; first compound 0.3162 µM): 0.889
- relative viability (NCI-H727; first compound 1 µM): 0.466
- relative viability (COR-L23; first compound 0.01 µM): 1.18
- relative viability (COR-L23; first compound 0.03162 µM): 0.955
- relative viability (COR-L23; first compound 0.1 µM): 1.08
- relative viability (COR-L23; first compound 0.3162 µM): 0.842
- relative viability (COR-L23; first compound 1 µM): 0.292
- relative viability (LCLC-103H; first compound 0.01 µM): 0.815
- relative viability (LCLC-103H; first compound 0.03162 µM): 0.829
- relative viability (LCLC-103H; first compound 0.1 µM): 0.82
- relative viability (LCLC-103H; first compound 0.3162 µM): 0.764
- relative viability (LCLC-103H; first compound 1 µM): 0.823
